Data published in the supplement of paper PMC10307832.

Assays:
Assay in all cases: relative viability (nuclei count vs DMSO), 5 days (fraction); higher = more cells survive
[1] = compound: CC(C)CCN1c2nc(Nc3cc(F)c(O)c(F)c3)ncc2N(C)C(=O)C1C [BI-D1870] + NC(=O)Nc1cc(-c2cccc(F)c2)sc1C(=O)N[C@H]1CCCNC1 [AZD7762] (partner 0.2 µM)
Outline: (§1)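 Relative viability divides the nuclei count in treated wells by that in vehicle wells. Lung cancer cell lines were seeded in 1536-well plates, dosed by pin tool the next day, and fixed and stained after 5 days in one step with final 0.05% Triton X-100, 1% formaldehyde and 1 ug/ml Hoechst. Dosing was a single drug or a fixed anchor-drug dose plus five library-drug doses (not always all listed) in √10 steps, and values are medians of duplicate plates imaged at 4×.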

[2] = compound: CC(C)CCN1c2nc(Nc3cc(F)c(O)c(F)c3)ncc2N(C)C(=O)C1C [BI-D1870] + CC(=O)c1c(C)c2cnc(Nc3ccc(N4CCNCC4)cn3)nc2n(C2CCCC2)c1=O [Palbociclib] (partner 0.5 µM)
Outline: as §1

[3] = compound: O=c1ncccn1[C@@H]1O[C@H](CO)[C@@H](O)[C@H]1O [Zebularine] + Nc1ncn([C@H]2C[C@H](O)[C@@H](CO)O2)c(=O)n1 [Decitabine] (partner 2 µM)
Outline: as §1

[4] = compound: O=c1ncccn1[C@@H]1O[C@H](CO)[C@@H](O)[C@H]1O [Zebularine] + C[C@@H](Oc1cc(-c2cnn(C3CCNCC3)c2)cnc1N)c1c(Cl)ccc(F)c1Cl [Crizotinib] (partner 1 µM)
Outline: as §1

Cell Line	relative viability ([1]; first compound 0.04 µM)	relative viability ([1]; first compound 0.1265 µM)	relative viability ([1]; first compound 0.4 µM)	relative viability ([1]; first compound 1.265 µM)	relative viability ([1]; first compound 4 µM)	relative viability ([2]; first compound 0.04 µM)	relative viability ([2]; first compound 0.1265 µM)	relative viability ([2]; first compound 0.4 µM)	relative viability ([2]; first compound 1.265 µM)	relative viability ([2]; first compound 4 µM)	relative viability ([3]; first compound 1 µM)	relative viability ([3]; first compound 3.162 µM)	relative viability ([3]; first compound 10 µM)	relative viability ([3]; first compound 31.62 µM)	relative viability ([3]; first compound 100 µM)	relative viability ([4]; first compound 1 µM)	relative viability ([4]; first compound 3.162 µM)	relative viability ([4]; first compound 10 µM)	relative viability ([4]; first compound 31.62 µM)	relative viability ([4]; first compound 100 µM)
NCI-H2342	0.493	0.609	0.392	0.803	0.667	0.508	0.511	0.528	0.528	0.559	0.744	0.749	0.699	0.815	0.696	–	–	–	–	–
HCC-15	0.725	1.18	1.04	1.17	1.08	0.701	0.64	0.722	0.746	0.681	0.683	0.575	0.36	0.684	0.487	1.02	0.761	0.586	0.769	0.219
A-427	0.86	0.717	0.848	1.01	0.796	0.59	0.488	0.532	0.555	0.495	0.693	0.534	0.524	0.455	0.302	1.21	0.795	0.624	0.345	0.188
NCI-H2228	–	–	–	–	–	0.97	0.771	0.688	0.713	0.627	–	–	–	–	–	0.462	0.38	0.42	0.521	0.37
NCI-H1734	0.635	0.494	0.608	0.72	0.593	0.334	0.302	0.337	0.345	0.309	0.445	0.828	0.421	0.516	0.295	0.71	0.696	0.391	0.384	0.295
PC-14	0.449	0.301	0.361	0.344	0.316	0.56	0.468	0.474	0.356	0.138	0.193	0.135	0.117	0.0981	0.0826	1.01	0.81	0.271	0.141	0.122
NCI-H1915	0.706	0.636	0.665	0.7	0.616	0.577	0.504	0.469	0.451	0.376	0.284	0.278	0.261	0.265	0.282	1.18	0.911	0.649	0.926	0.698
NCI-H1666	0.934	0.868	0.778	0.995	0.812	0.665	0.591	0.661	0.63	0.619	0.8	0.736	0.698	0.712	0.669	1.01	0.783	1.05	1.02	0.596
HCC-366	0.389	0.273	0.202	0.662	0.477	0.422	0.404	0.329	0.445	0.376	0.412	0.336	0.274	0.389	0.108	0.774	0.637	0.2	0.265	0.133
SK-MES-1	–	–	–	–	–	0.342	0.318	0.314	0.285	0.266	0.442	0.397	0.321	0.286	0.261	1.07	1.03	0.645	0.648	0.325
SW 1573	–	–	–	–	–	0.435	0.347	0.332	0.25	0.17	0.525	0.424	0.341	0.582	0.555	0.72	0.776	0.44	0.831	0.574
NCI-H661	–	–	–	–	–	0.459	0.392	0.419	0.384	0.358	0.564	0.551	0.48	0.608	0.505	1.24	1	1.02	1.05	0.997
PC-3 [JPC-3]	0.851	0.75	0.837	0.693	0.449	0.578	0.511	0.53	0.567	0.478	0.781	0.817	0.755	0.842	0.659	1.09	0.943	0.64	0.699	0.476
Calu-6	–	–	–	–	–	–	–	–	–	–	–	–	–	–	–	0.902	0.77	0.556	0.447	0.211
LC-2-ad	0.849	0.805	0.831	0.886	0.675	0.577	0.471	0.509	0.477	0.401	0.83	0.796	0.554	0.72	0.329	0.498	0.434	0.363	0.377	0.249
CAL-12T	0.749	0.546	0.637	0.599	0.668	0.593	0.399	0.34	0.336	0.203	–	–	–	–	–	0.657	0.596	–	0.719	0.574
RERF-LC-KJ	0.944	0.896	0.946	1.08	0.914	1.14	0.994	1.03	1.02	0.766	0.828	0.733	0.587	0.85	0.751	1.01	0.826	–	0.885	0.977
NCI-H1650	–	–	–	–	–	0.372	0.316	0.338	0.321	0.335	0.347	0.305	0.335	0.378	0.269	1.04	0.788	–	1.13	0.86
BEN	0.699	0.574	0.633	0.961	0.67	0.486	0.45	0.472	0.46	0.423	0.821	0.686	0.545	0.495	0.371	0.812	0.81	0.433	0.37	0.328
EMC-BAC-2	1.21	1.11	1.05	1.38	1.02	0.555	0.505	0.511	0.544	0.483	1.03	1	0.772	1.03	1.01	0.795	0.67	0.689	0.777	0.824
LU99A	0.414	0.3	0.429	0.655	0.49	0.431	0.363	0.387	0.37	0.331	0.906	0.813	0.61	0.392	0.215	0.683	0.531	0.383	0.255	0.153

Cell Line	relative viability ([1]; first compound 0.04 µM)	relative viability ([1]; first compound 0.1265 µM)	relative viability ([1]; first compound 0.4 µM)	relative viability ([1]; first compound 1.265 µM)	relative viability ([1]; first compound 4 µM)	relative viability ([2]; first compound 0.04 µM)	relative viability ([2]; first compound 0.1265 µM)	relative viability ([2]; first compound 0.4 µM)	relative viability ([2]; first compound 1.265 µM)	relative viability ([2]; first compound 4 µM)	relative viability ([3]; first compound 1 µM)	relative viability ([3]; first compound 3.162 µM)	relative viability ([3]; first compound 10 µM)	relative viability ([3]; first compound 31.62 µM)	relative viability ([3]; first compound 100 µM)	relative viability ([4]; first compound 1 µM)	relative viability ([4]; first compound 3.162 µM)	relative viability ([4]; first compound 10 µM)	relative viability ([4]; first compound 31.62 µM)	relative viability ([4]; first compound 100 µM)
ABC-1	0.805	0.82	0.796	0.791	0.895	0.973	0.708	0.667	0.849	0.679	1.13	0.68	0.888	0.577	0.495	1.04	1.01	0.812	0.779	0.565
NCI-H2170	0.977	0.882	0.844	0.923	0.654	0.455	0.38	0.423	0.447	0.398	0.48	0.423	0.426	0.505	0.349	1.31	1.13	0.7	0.981	0.517
NCI-H1299	–	–	–	–	–	–	–	–	–	–	–	–	–	–	–	0.963	0.921	0.788	0.893	0.566
EBC-1	–	–	–	–	–	–	–	–	–	–	–	–	–	–	–	0.191	0.18	–	0.187	0.189
NCI-H2347	0.811	0.768	0.798	0.933	0.822	0.385	0.426	0.407	0.453	0.4	0.658	0.598	0.544	0.575	0.371	0.682	0.676	0.618	0.516	0.381
NCI-H1648	0.67	0.677	–	0.646	0.57	0.285	0.273	–	0.308	0.259	0.456	0.478	0.368	0.487	0.438	–	–	–	–	–
COR-L23	–	–	–	–	–	0.281	0.24	0.315	0.257	0.278	0.407	0.368	0.408	0.363	0.202	0.633	0.742	0.454	0.351	0.182
COR-L 105	–	–	–	–	–	0.412	0.395	0.407	0.41	0.425	0.642	0.696	0.523	0.648	0.647	1.07	0.785	0.503	0.718	0.729
NCI-H596	1.23	0.9	1.04	1.16	0.933	–	–	–	–	–	0.84	1.07	0.894	1.06	0.98	0.994	0.948	0.85	0.902	0.988
NCI-H2023	–	–	–	–	–	0.424	0.279	0.284	0.3	0.207	0.243	0.22	0.166	0.199	0.182	0.807	0.569	0.611	0.389	0.201
NCI-H1793	0.74	0.411	0.296	0.417	0.504	0.369	0.274	0.291	0.391	0.318	0.471	0.523	0.292	0.328	0.218	–	–	–	–	–
NCI-H520	–	–	–	–	–	0.253	0.218	0.217	0.224	0.13	0.552	0.49	0.399	0.299	0.233	0.784	0.717	0.429	0.372	0.261
A549	–	–	–	–	–	–	–	–	–	–	0.219	0.251	–	0.267	0.185	0.847	0.846	0.478	0.228	0.164
NCI-H1563	–	–	–	–	–	–	–	–	–	–	–	–	–	–	–	0.877	0.873	0.849	0.935	0.828
NCI-H1395	0.398	0.374	0.42	0.427	0.454	0.649	0.603	0.64	0.717	0.638	0.678	0.755	0.82	0.709	0.623	–	–	–	–	–
NCI-H2009	–	–	–	–	–	0.22	0.169	0.229	0.179	0.148	0.386	0.36	0.33	0.383	0.266	1.07	0.962	0.817	0.681	0.311
NCI-H522	0.84	0.845	0.851	0.935	0.911	1.03	1.06	0.943	0.975	0.788	0.621	0.577	0.641	0.61	0.639	–	–	–	–	–
IA-LM	–	–	–	–	–	–	–	–	–	–	–	–	–	–	–	1.07	0.718	–	1.1	0.609
SK-LU-1	–	–	–	–	–	0.384	0.361	0.329	0.404	0.318	0.583	0.652	0.478	0.675	0.495	1.02	0.843	0.531	0.79	0.583
NCI-H1703	0.143	–	0.122	0.142	0.116	–	–	–	–	–	–	–	–	–	–	0.623	0.852	–	0.67	0.913
SW 900	0.81	0.589	0.526	0.661	0.594	0.697	0.478	0.511	0.536	0.517	0.512	0.4	–	0.43	0.432	–	–	–	–	–
